Data set [1] deals with T1, Bromodomain-containing protein 4 (Homo sapiens, UniProt O60885). The data set can be described thus: Inhibition of BRD4 (unknown origin) at 1 uM preincubated for 15 mins followed by substrate addition and measured after 1 hr by AlphaScreen assay relative to control. As to conditions: time 75.0 min.
The target in data set [2] is T1, Bromodomain-containing protein 4. The data set can be described thus: Inhibition of BRD4 (unknown origin) preincubated for 15 mins followed by substrate addition and measured after 1 hr by AlphaScreen assay relative to control. On the technique in general: In Alpha technology, singlet oxygen from a donor bead excites a nearby acceptor bead.
Another data set deals with PANC-1. The data set can be described thus: Antiproliferative activity against human PANC-1 cells assessed as cell growth inhibition at 2 uM measured after 48 to 72 hrs by MTT assay relative to control. It counts as functional. As to conditions: time 48-72 hrs, read-out: GI. In general terms: Tetrazolium dyes change colour on reduction, which living cells bring about.

In the next data set the test system is BXPC-3. The data set can be described thus: Antiproliferative activity against human BXPC-3 cells assessed as cell growth inhibition at 2 uM measured after 48 to 72 hrs by MTT assay relative to control. The format is functional. The note with it: time 48-72 hrs, read-out: GI.
A further data set concerns SMMC-7721. As to the kind of experiment: Antiproliferative activity against human SMMC-7721 cells assessed as cell growth inhibition at 2 uM measured after 48 to 72 hrs by MTT assay relative to control. The format is functional. The note with it: time 48-72 hrs, read-out: GI.
The subject of a further data set is Panc02. The data set can be described thus: Antitumor activity against mouse Panc02 allografted in BALB/c mouse assessed as reduction in tumor weight at 100 mg/kg, ip administered every day for 20 days relative to control. The format is functional. As to conditions: 480 h, time 20 day, read-out: TGI.
A short description of data set [3]: Toxicity in BALB/c mouse allografted with mouse Panc02 cells assessed as effect on body weight at 100 mg/kg, ip administered every day measured after 19 days. The note with it: in vivo, 456 h, time 19 day. It counts as organism-based.
The subject of data set [4] is Mus musculus. As to the kind of experiment: Downregulation of Ki67 expression in BALB/c mouse allografted with mouse Panc02 cells […] at 100 mg/kg, ip administered every day measured after 20 days by immunohistochemical analysis. The format is functional, organism-based. As to conditions: time 20.0 day.
In data set [5] the test system is Mus musculus. The data set can be described thus: Upregulation of caspase 3 in BALB/c mouse allografted with mouse Panc02 cells […] at 100 mg/kg, ip administered every day measured after 20 days by immunohistochemical analysis. As to conditions: time 20.0 day. It counts as functional, organism-based.

Structures are written as SMILES. Active and inactive are the calls of the source. The rule behind the calls is not given here.

In the case of `CCS(=O)(=O)c1ccc(Oc2ccc(Cl)c(-c3c(C)noc3C)c2)c(-c2cn(C)c(=O)c3cncn23)c1`, in [1], the inhibition is 64.9%.
Compound `CCS(=O)(=O)c1ccc(Oc2ccc(C)c(-c3c(C)noc3C)c2)c(-c2cn(C)c(=O)c3cncn23)c1` came in with an IC50 in data set [2] of 254 nM. In addition, the inhibition of growth at 2 µM stood at 23.7% in the data set on PANC-1, 35.8% with BXPC-3 and 19.9% in the data set on SMMC-7721. This compound gave an inhibition in data set [1] of 96.5%.
`Nc1ccn([C@@H]2O[C@H](CO)[C@@H](O)C2(F)F)c(=O)n1` [GEMCITABINE]: the inhibition in vivo at 100 mg/kg in the data set on Panc02 was determined as 70%. For the same compound, the Activity entry in data set [3] is given as “Non-Toxic”. The result in the data set on Mus musculus [4] and in the data set on Mus musculus [5] was Active.
With `CCS(=O)(=O)c1ccc(Oc2cc(F)c(F)c(F)c2)c(-c2cn(C)c(=O)c3cncn23)c1`, the inhibition in data set [1] came to 40.1%.
On the same count and under the same terms, then `CCS(=O)(=O)c1ccc(Oc2cc(-c3c(C)noc3C)ccc2Cl)c(-c2cn(C)c(=O)c3cncn23)c1`, with 86.3%.
As for `CCS(=O)(=O)c1ccc(Oc2cc(-c3c(C)noc3C)ccc2C)c(-c2cn(C)c(=O)c3cncn23)c1`, in [2], it took 261 nM to reach half-maximal inhibition (IC50). In addition, the figures for the inhibition of growth at 2 µM in the data set on PANC-1, in the data set on BXPC-3 and in the data set with SMMC-7721 were 20.6%, 30.2% and 11.4%, respectively. In [1], this compound returned an inhibition of 95.2%.
For `CCS(=O)(=O)c1ccc(Oc2cc(-c3c(C)noc3C)ccc2OC)c(-c2cn(C)c(=O)c3cncn23)c1` the same measures were 56 nM, 16.2%, 42.2%, 18.4% and 99.9%.
Taken in the same sequence, the figures for `Cc1sc2c(c1C)C(c1ccc(Cl)cc1)=N[C@@H](CC(=O)C(C)(C)C)c1nnc(C)n1-2` were 88 nM, 17.1%, 31.1%, 12.2% and 99.5%.
Taken in the same sequence, the figures for `CCS(=O)(=O)c1ccc(Oc2cc(-c3c(C)noc3C)ccc2F)c(-c2cn(C)c(=O)c3cncn23)c1` were 152 nM, 19.6%, 33.2%, 21.3% and 99.5%.
`CCS(=O)(=O)c1ccc(Oc2cc(-c3c(C)noc3C)ccc2C#N)c(-c2cn(C)c(=O)c3cncn23)c1` yielded an inhibition in [1] of 31.2%.
On the same count and under the same terms, then `Cc1noc(C)c1-c1cccc(Oc2ccc(S(C)(=O)=O)cc2-c2cn(C)c(=O)c3cncn23)c1`, with 62.7%.
Regarding `CCS(=O)(=O)c1ccc(Oc2cccc(-c3c(C)noc3C)c2)c(-c2cn(C)c(=O)c3cncn23)c1`, the IC50 in data set [2] worked out at 435 nM. For the same compound, the figures for the inhibition of growth at 2 µM with PANC-1, with BXPC-3 and in the data set on SMMC-7721 were 21.6%, 41.2% and 18.2%, respectively. The inhibition in [1] was 93.2%.
For the compound `CCS(=O)(=O)c1ccc(Oc2ccc(F)c(-c3c(C)noc3C)c2)c(-c2cn(C)c(=O)c3cncn23)c1`, the inhibition in data set [1] was 78.1%.
On the same count and under the same terms, to `CCS(=O)(=O)c1ccc(Oc2cccc(-c3c(C)noc3C)n2)c(-c2cn(C)c(=O)c3cncn23)c1` belongs 70.2%.

What is called inhibition is the drop in the measured response relative to a control, in per cent. For orientation: IC50 means the concentration needed to halve the response being measured. The low end stands for greater potency in that assay, the high end for weaker potency in that assay.

Source of the values: ChEMBL document CHEMBL4673289, “Design, synthesis and biological evaluation of imidazolopyridone derivatives as novel BRD4 inhibitors” (Bioorg Med Chem, 2021).
